Source: ChEMBL document CHEMBL3856277, “Design, synthesis, and activity evaluation of selective inhibitors of anti-apoptotic Bcl-2 proteins: The effects on the selectivity of the P1 pockets in the active sites” (Bioorg Med Chem Lett, 2016)
pIC50, pKi: −log10 of the molar value.

Key:
[1] = target: Apoptosis regulator Bcl-2 (Homo sapiens, UniProt P10415); assay: Inhibition of 5-FAM-Bid peptide binding to Bcl-2 (unknown origin) by fluorescence polarization assay
[2] = target: Bcl-2-like protein 1 (Homo sapiens, UniProt Q07817); assay: Inhibition of 5-FAM-Bid peptide binding to Bcl-XL (unknown origin) by fluorescence polarization assay
Chain of Bcl-2-like protein 1 (Q07817 whole entry): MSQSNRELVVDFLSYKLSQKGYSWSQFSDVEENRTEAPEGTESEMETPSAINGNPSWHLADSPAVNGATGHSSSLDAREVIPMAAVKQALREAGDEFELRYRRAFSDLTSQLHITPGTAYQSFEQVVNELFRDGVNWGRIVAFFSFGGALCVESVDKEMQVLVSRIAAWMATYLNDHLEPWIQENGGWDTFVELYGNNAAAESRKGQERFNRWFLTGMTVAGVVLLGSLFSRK

[3] = target: Induced myeloid leukemia cell differentiation protein Mcl-1 (Homo sapiens, UniProt Q07820); assay: Inhibition of 5-FAM-Bid peptide binding to MCL-1 (unknown origin) by fluorescence polarization assay
Chain of Induced myeloid leukemia cell differentiation protein Mcl-1 (Q07820 whole entry): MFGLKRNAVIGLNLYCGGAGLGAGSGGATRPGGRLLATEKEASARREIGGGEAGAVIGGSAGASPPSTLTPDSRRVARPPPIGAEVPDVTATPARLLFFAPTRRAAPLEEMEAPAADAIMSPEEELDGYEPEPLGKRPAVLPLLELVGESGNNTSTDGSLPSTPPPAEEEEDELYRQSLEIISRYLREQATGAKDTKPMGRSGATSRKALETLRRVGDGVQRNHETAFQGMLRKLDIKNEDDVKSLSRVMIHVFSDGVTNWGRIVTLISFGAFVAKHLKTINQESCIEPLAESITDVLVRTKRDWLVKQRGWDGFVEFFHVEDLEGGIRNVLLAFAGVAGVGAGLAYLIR

[4] = species: Homo sapiens; assay: Selectivity index, ratio of Ki for Bcl-2 (unknown origin) to Ki for Bcl-XL (unknown origin)
[5] = species: Homo sapiens; assay: Selectivity index, ratio of Ki for Bcl-2 (unknown origin) to Ki for MCL-1 (unknown origin)
[6] = Growth inhibition of human HL60 cells after 72 hrs by MTT assay; format: functional, cell-based; details: HL-60, 72 h
[7] = Growth inhibition of human U266 cells after 72 hrs by MTT assay; format: functional, cell-based; details: U-266, 72 h
[8] = Growth inhibition of human MCF7 cells after 72 hrs by MTT assay; format: functional, cell-based; details: MCF7, 72 h
[9] = Growth inhibition of human SKOV3 cells after 72 hrs by MTT assay; format: functional, cell-based; details: SK-OV-3, 72 h
[10] = Growth inhibition of human NCI-H23 cells after 72 hrs by MTT assay; format: functional, cell-based; details: NCI-H23, 72 h

Chain of Apoptosis regulator Bcl-2 (P10415 whole entry): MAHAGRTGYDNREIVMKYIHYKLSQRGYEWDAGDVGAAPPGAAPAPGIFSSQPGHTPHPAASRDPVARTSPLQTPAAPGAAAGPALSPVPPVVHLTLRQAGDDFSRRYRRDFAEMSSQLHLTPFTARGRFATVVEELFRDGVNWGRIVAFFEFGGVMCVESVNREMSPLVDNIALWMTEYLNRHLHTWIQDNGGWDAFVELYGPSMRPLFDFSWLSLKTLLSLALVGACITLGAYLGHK

| pKi [1] | pKi [2] | pKi [3] | Ratio Ki [4] | Ratio Ki [5] | Compound | pIC50 [6] | pIC50 [7] | pIC50 [8] | pIC50 [9] | pIC50 [10] |
| --- | --- | --- | --- | --- | --- | --- | --- | --- | --- | --- |
| 6.14 | 7.05 | 5.07 | 8 | < 1 | COc1ccccc1/C=C/C(=O)Nc1ccc(C(=O)NS(=O)(=O)c2ccc(NCCSc3ccccc3)c([N+](=O)[O-])c2)cc1 | – | – | – | – | – |
| 5.82 | 6.89 | 6.20 | 12 | 2 | Cc1ccc(/C=C/C(=O)Nc2ccc(C(=O)NS(=O)(=O)c3ccc(NCCSc4ccccc4)c([N+](=O)[O-])c3)cc2)cc1 | – | – | – | – | – |
| 5.59 | 6.54 | 5.27 | 9 | < 1 | O=C(/C=C/c1cccc(C(F)(F)F)c1)Nc1ccc(C(=O)NS(=O)(=O)c2ccc(NCCSc3ccccc3)c([N+](=O)[O-])c2)cc1 | – | – | – | – | – |
| 6.22 | 6.92 | 4.85 | 5 | < 1 | O=C(/C=C/c1ccccc1Cl)Nc1ccc(C(=O)NS(=O)(=O)c2ccc(NCCSc3ccccc3)c([N+](=O)[O-])c2)cc1 | – | – | – | – | – |
| – | – | – | – | – | CN(C)CC[C@H](CSc1ccccc1)Nc1ccc(S(=O)(=O)NC(=O)c2ccc(N3CCN(Cc4ccccc4-c4ccc(Cl)cc4)CC3)cc2)cc1[N+](=O)[O-] [ABT 737] | 6.01 | 4.56 | 4.60 | 4.33 | 4.15 |
| 5.77 | 6.68 | 6.08 | 8 | 2 | Cc1ccccc1/C=C/C(=O)Nc1ccc(C(=O)NS(=O)(=O)c2ccc(NCCSc3ccccc3)c([N+](=O)[O-])c2)cc1 | – | – | – | – | – |
| 5.36 | 6.49 | 5.16 | 14 | 1 | O=C(CCc1ccccc1)Nc1ccc(C(=O)NS(=O)(=O)c2ccc(NCCSc3ccccc3)c([N+](=O)[O-])c2)cc1 | – | – | – | – | – |
| 5.70 | 6.29 | 5.77 | 4 | 1 | O=C(/C=C/c1ccc(C(F)(F)F)cc1)Nc1ccc(C(=O)NS(=O)(=O)c2ccc(NCCSc3ccccc3)c([N+](=O)[O-])c2)cc1 | – | – | – | – | – |
| 5.72 | 6.96 | 6.10 | 17 | 2 | COc1cccc(/C=C/C(=O)Nc2ccc(C(=O)NS(=O)(=O)c3ccc(NCCSc4ccccc4)c([N+](=O)[O-])c3)cc2)c1 | – | – | – | – | – |
| 5.77 | 6.80 | 6.36 | 11 | 4 | Cc1cccc(/C=C/C(=O)Nc2ccc(C(=O)NS(=O)(=O)c3ccc(NCCSc4ccccc4)c([N+](=O)[O-])c3)cc2)c1 | – | – | – | – | – |
| 5.47 | 6.48 | 5.40 | 10 | 1 | O=C(NS(=O)(=O)c1ccc(NCCSc2ccccc2)c([N+](=O)[O-])c1)c1ccc(C(=O)c2ccccc2)cc1 | – | – | – | – | – |
| 5.89 | 6.54 | 5.89 | 4 | 1 | O=C(/C=C/c1cccc(Cl)c1)Nc1ccc(C(=O)NS(=O)(=O)c2ccc(NCCSc3ccccc3)c([N+](=O)[O-])c2)cc1 | – | – | – | – | – |
| 5.89 | 7.15 | 6.23 | 19 | 2 | COc1ccc(/C=C/C(=O)Nc2ccc(C(=O)NS(=O)(=O)c3ccc(NCCSc4ccccc4)c([N+](=O)[O-])c3)cc2)cc1 | – | – | – | – | – |
| 5.77 | 6.77 | 6.18 | 10 | 3 | O=C(/C=C/c1ccccc1C(F)(F)F)Nc1ccc(C(=O)NS(=O)(=O)c2ccc(NCCSc3ccccc3)c([N+](=O)[O-])c2)cc1 | – | – | – | – | – |
| 5.31 | 6.85 | 5.80 | 35 | 3 | O=C(/C=C/c1ccccc1)Nc1ccc(C(=O)NS(=O)(=O)c2ccc(NCCSc3ccccc3)c([N+](=O)[O-])c2)cc1 | – | – | – | – | – |
| 5.38 | < 4.70 | 7.22 | < 1 | 70 | C=C(c1ccc(C(=O)NS(=O)(=O)c2ccc(NCCSc3ccccc3)c([N+](=O)[O-])c2)cc1)c1cc2c(cc1C)C(C)(C)CCC2(C)C | 5.31 | 5.12 | 5.65 | 5.12 | 5.13 |
| 5.77 | 6.20 | 5.17 | 3 | < 1 | O=C(Nc1ccc(C(=O)NS(=O)(=O)c2ccc(NCCSc3ccccc3)c([N+](=O)[O-])c2)cc1)c1ccccc1 | – | – | – | – | – |
| 5.51 | < 4.70 | 6.54 | < 1 | 11 | C=C(c1ccc(C(=O)Nc2ccc(C(=O)NS(=O)(=O)c3ccc(NCCSc4ccccc4)c([N+](=O)[O-])c3)cc2)cc1)c1cc2c(cc1C)C(C)(C)CCC2(C)C | 5.53 | 5.16 | 6.59 | 5.11 | 5.08 |
| 5.96 | 6.68 | 5.57 | 5 | < 1 | O=C(/C=C/c1ccc(Cl)cc1)Nc1ccc(C(=O)NS(=O)(=O)c2ccc(NCCSc3ccccc3)c([N+](=O)[O-])c2)cc1 | – | – | – | – | – |
| 5.40 | 6.35 | 5.25 | 9 | 1 | O=C(Cc1ccccc1)Nc1ccc(C(=O)NS(=O)(=O)c2ccc(NCCSc3ccccc3)c([N+](=O)[O-])c2)cc1 | – | – | – | – | – |

| Compound | pKi [1] | pKi [2] | pKi [3] | Ratio Ki [4] | Ratio Ki [5] | pIC50 [6] | pIC50 [7] | pIC50 [8] | pIC50 [9] | pIC50 [10] |
| --- | --- | --- | --- | --- | --- | --- | --- | --- | --- | --- |
| Cc1cc2c(C(C)C)c(O)c(O)c(C=O)c2c(O)c1-c1c(C)cc2c(C(C)C)c(O)c(O)c(C=O)c2c1O [GOSSYPOL] | – | – | 6.19 | – | – | – | – | – | – | – |
